The numbers were not newly measured in patent US20090202444A1 (priority 2009, published 2009), which cites them from elsewhere.

The structures appear in SMILES notation.

The series concerns bacteria.

On to `[Ag+]` [silver ion], for which the “silver ion concentration for inhibition of bacterial growth” value is on record as “below 5 ppm”.
